Measurements reported in patent publication US10065956B2, “Ethynyl derivatives” (Hoffmann-La Roche Inc., priority 2015, dated 2018).

Target: T1, human mGlu4 receptor (Homo sapiens, UniProt Q14833)
T1 construct: expressed in transfected cells; host or cells: monoclonal HEK-293 cell line, stably transfected
Assay: Ca2+ mobilization in vitro assay on recombinant human mGlu4 expressed in HEK293 cells (PAM, L-AP4 at EC20)
Assay type: cell-based
Conditions: for Emax: HEK293, maximal response in % of the maximal stimulatory effect obtained with saturating concentrations of L-AP4, read-out: Eff. (%); for EC50: HEK293 cells expressing human mGlu4, L-AP4 added at EC20
From the text: FIG. 1: Illustration of the experimental outline for mGlu4 PAM Ca2+ mobilization screening assay and the determination of EC50 and % Emax values.
Determination of EC50 Values Using a Ca2+ Mobilization In Vitro Assay on Recombinant Human mGlu4 Expressed in HEK293 Cells:
A monoclonal HEK-293 cell line stably transfected with a cDNA encoding for the human mGlu4 receptor was generated; for the work with mGlu4 Positive Allosteric Modulators (PAMs), a cell line with low receptor expression levels and low constitutive receptor activity was selected to allow the differentiation of agonistic versus PAM activity. Cells were cultured according to standard protocols (Freshney, 2000) in Dulbecco's Modified Eagle Medium with high glucose supplemented with 1 mM glutamine, 10% (vol/vol) heat-inactivated bovine calf serum, Penicillin/Streptomycin, 50 μg/ml hygromycin and 15 μg/ml blasticidin (all cell culture reagents and antibiotics from Invitrogen, Basel, Switzerland).
About 24 hrs before an experiment, 5×10^4 cells/well were seeded in poly-D-lysine coated, black/clear-bottomed 96-well plates. The cells were loaded with 2.5 μM Fluo-4AM in loading buffer (1×HBSS, 20 mM HEPES) for 1 hr at 37° C. and washed five times with loading buffer. The cells were transferred into a Functional Drug Screening System 7000 (Hamamatsu, Paris, France), and 11 half logarithmic serial dilutions of test compound at 37° C. were added and the cells were incubated for 10-30 min. with on-line recording of fluorescence. Following this pre-incubation step, the agonist (2S)-2-amino-4-phosphonobutanoic acid (L-AP4) was added to the cells at a concentration corresponding to EC20 with on-line recording of fluorescence; in order to account for day-to-day variations in the responsiveness of cells, the EC20 of L-AP4 was determined immediately ahead of each experiment by recording of a full dose-response curve of L-AP4. Responses were measured as peak increase in fluorescence minus basal (i.e. fluorescence without addition of L-AP4), normalized to the maximal stimulatory effect obtained with saturating concentrations of L-AP4. Graphs were plotted with the % maximal stimulatory using XLfit, a curve fitting program that iteratively plots the data using Levenburg Marquardt algorithm. The single site competition analysis equation used was y=A+((B−A)/(1+((x/C)D))), where y is the % maximal stimulatory effect, A is the minimum y, B is the maximum y, C is the EC50, x is the log 10 of the concentration of the competing compound and D is the slope of the curve (the Hill Coefficient). From these curves the EC50 (drug concentration at which 50% of the maximal receptor activation was achieved), the Hill coefficient as well as the maximal response in % of the maximal stimulatory effect obtained with saturating concentrations of L-AP4 were calculated (see FIG. 1). […] A depression of the signal observed after addition of the EC20 concentration of L-AP4 was indicative of an inhibitory activity of the test compound.

T1 sequence (Q14833 33-912): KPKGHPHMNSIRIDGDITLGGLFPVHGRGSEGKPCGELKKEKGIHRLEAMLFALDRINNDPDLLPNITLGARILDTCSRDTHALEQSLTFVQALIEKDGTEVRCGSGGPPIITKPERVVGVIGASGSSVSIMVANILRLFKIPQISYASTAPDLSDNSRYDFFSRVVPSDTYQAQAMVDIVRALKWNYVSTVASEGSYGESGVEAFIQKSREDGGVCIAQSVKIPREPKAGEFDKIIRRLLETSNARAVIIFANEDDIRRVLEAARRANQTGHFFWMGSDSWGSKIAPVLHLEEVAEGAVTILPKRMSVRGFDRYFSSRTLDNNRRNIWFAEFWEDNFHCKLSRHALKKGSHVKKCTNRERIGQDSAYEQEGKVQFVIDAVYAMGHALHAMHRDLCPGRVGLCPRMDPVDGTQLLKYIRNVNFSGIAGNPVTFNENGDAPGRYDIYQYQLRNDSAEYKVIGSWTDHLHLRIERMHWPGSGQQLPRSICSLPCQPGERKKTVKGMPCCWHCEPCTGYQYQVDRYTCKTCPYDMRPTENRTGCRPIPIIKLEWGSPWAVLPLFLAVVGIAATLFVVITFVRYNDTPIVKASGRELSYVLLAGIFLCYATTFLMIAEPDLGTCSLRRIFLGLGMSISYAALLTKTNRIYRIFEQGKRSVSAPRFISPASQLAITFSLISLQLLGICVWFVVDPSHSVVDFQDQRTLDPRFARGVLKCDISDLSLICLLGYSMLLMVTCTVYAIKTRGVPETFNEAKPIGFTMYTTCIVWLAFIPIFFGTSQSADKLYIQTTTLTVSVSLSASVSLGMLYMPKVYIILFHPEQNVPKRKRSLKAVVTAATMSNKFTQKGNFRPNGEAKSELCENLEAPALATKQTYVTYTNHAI

Row | Emax | EC50 | SMILES
1 | 156% | 97 nM | CN1C(=O)N(c2c(F)cc(C#Cc3ccccc3)cc2F)C(=O)C[C@@]1(C)c1ccn(CCO)n1 [Example 46, (S)-3-(2,6-Difluoro-4-(phenylethynyl)phenyl)-6-(1-(2-hydroxyethyl)-1H-pyrazol-3-yl)-1,6-dimethyldihydropyrimidine-2,4(1H,3H)-dione]
2 | 142% | 47 nM | CN1C(=O)N(c2c(F)cc(C#Cc3ccccc3)cc2F)C(=O)C[C@@]1(C)c1cnn(CC(C)(C)O)c1 [Example 60, (6S)-3-[2,6-Difluoro-4-(2-phenylethynyl)phenyl]-6-[1-(2-hydroxy-2-methyl-propyl)pyrazol-4-yl]-1,6-dimethyl-hexahydropyrimidine-2,4-dione]
3 | 137% | 93 nM | CN1C(=O)N(c2c(F)cc(C#Cc3ccccc3)cc2F)C(=O)C[C@@]1(C)c1cnn2ccccc12 [Example 14, (6S)-3-[2,6-Difluoro-4-(2-phenylethynyl)phenyl]-1,6-dimethyl-6-pyrazolo[1,5-a]pyridin-3-yl-hexahydropyrimidine-2,4-dione]
4 | 131% | 36 nM | CN1C(=O)N(c2c(F)cc(C#Cc3ccccc3)cc2F)C(=O)C[C@@]1(C)c1cn[nH]c1 [Example 16, (6S)-3-[2,6-Difluoro-4-(2-phenylethynyl)phenyl]-1,6-dimethyl-6-(1H-pyrazol-4-yl)hexahydropyrimidine-2,4-dione]
5 | 138% | 94 nM | Cc1nc(C2(C)CC(=O)N(c3c(F)cc(C#Cc4ccccc4)cc3F)C(=O)N2C)cs1 (racemic) [Example 3, (6RS)-3-[2,6-Difluoro-4-(2-phenylethynyl)phenyl]-1,6-dimethyl-6-(2-methylthiazol-4-yl)hexahydropyrimidine-2,4-dione]
6 | 126% | 39 nM | CC[C@@]1(c2cn[nH]c2)CC(=O)N(c2c(F)cc(C#Cc3ccccc3)cc2F)C(=O)N1C [Example 45, (6S)-3-[2,6-Difluoro-4-(2-phenylethynyl)phenyl]-6-ethyl-1-methyl-6-(1H-pyrazol-4-yl)hexahydropyrimidine-2,4-dione]
7 | 154% | 126 nM | CN1C(=O)N(c2c(F)cc(C#Cc3ccccc3)cc2F)C(=O)C[C@@]1(C)c1nn(C)c2ncccc12 [Example 17, (6S)-3-[2,6-Difluoro-4-(2-phenylethynyl)phenyl]-1,6-dimethyl-6-(1-methylpyrazolo[3,4-b]pyridin-3-yl)hexahydropyrimidine-2,4-dione]
8 | 196% | 59 nM | CN1C(=O)N(c2c(F)cc(C#Cc3ccccc3)cc2F)C(=O)C[C@@]1(C)c1cnn(C)n1 [Example 33, (6S)-3-[2,6-Difluoro-4-(2-phenylethynyl)phenyl]-1,6-dimethyl-6-(2-methyltriazol-4-yl)hexahydropyrimidine-2,4-dione]
9 | 164% | 41 nM | CN1C(=O)N(c2c(F)cc(C#Cc3cccnc3)cc2F)C(=O)C[C@@]1(C)c1cn[nH]c1 [Example 36, (6S)-3-[2,6-Difluoro-4-[2-(3-pyridyl)ethynyl]phenyl]-1,6-dimethyl-6-(1H-pyrazol-4-yl)hexahydropyrimidine-2,4-dione]
10 | 160% | 44 nM | CN1C(=O)N(c2c(F)cc(C#Cc3cccc(F)c3)cc2F)C(=O)C[C@@]1(C)c1cn[nH]c1 [Example 59, (6S)-3-[2,6-Difluoro-4-[2-(3-fluorophenyl)ethynyl]phenyl]-1,6-dimethyl-6-(1H-pyrazol-4-yl)hexahydropyrimidine-2,4-dione]
11 | 175% | 112 nM | CN1C(=O)N(c2ccc(C#Cc3ccccc3)cc2Cl)C(=O)C[C@@]1(C)c1cnn(C)c1 [Example 37, (6S)-3-[2-Chloro-4-(2-phenylethynyl)phenyl]-1,6-dimethyl-6-(1-methylpyrazol-4-yl)hexahydropyrimidine-2,4-dione]
